≈ marks a conversion by molar mass, not a printed value.
Columns and labels:
[1] = Thermodynamic solubility of the compound in fasted state simulated intestinal fluid; type: ADME; settings: read-out: Therm_solubility
[2] = Lipophilicity, logD of the compound at pH 7.4 by chromatography; type: physicochemical; settings: buffer
[3] = Kinetic solubility of the compound by chemiluminescent nitrogen detection assay
[4] = Clearance in human liver microsomes; type: ADME
[5] = Permeability of the compound at pH 7.4 by PAMPA; type: ADME; settings: read-out: permeability
[6] = target: T1, Platelet-activating factor acetylhydrolase (Homo sapiens, UniProt Q13093); assay: Inhibition of human recombinant LpPLA2
T1 sequence (Q13093 whole entry): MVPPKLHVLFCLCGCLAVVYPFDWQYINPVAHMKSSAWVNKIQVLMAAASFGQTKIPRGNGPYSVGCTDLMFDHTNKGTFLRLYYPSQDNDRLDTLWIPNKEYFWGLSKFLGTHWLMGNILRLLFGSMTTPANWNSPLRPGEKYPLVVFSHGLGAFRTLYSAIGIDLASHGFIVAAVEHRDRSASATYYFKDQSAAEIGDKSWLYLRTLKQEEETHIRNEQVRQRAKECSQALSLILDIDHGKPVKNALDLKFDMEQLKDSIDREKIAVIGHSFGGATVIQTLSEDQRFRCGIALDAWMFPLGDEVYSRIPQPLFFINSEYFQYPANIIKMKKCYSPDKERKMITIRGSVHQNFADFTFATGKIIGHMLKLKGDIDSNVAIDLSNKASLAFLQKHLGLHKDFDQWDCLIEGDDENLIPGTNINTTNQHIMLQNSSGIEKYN

solubility thermodynamic [1] [µg/mL]	chromatographic logD [2]	solubility kinetic [3] [µM]	CLH [4] [mL/min/g]	Papp [5] [×10⁻⁶ cm/s]	IC50 [6] [nM]	Structure (SMILES)
635 (≈ 875 µM)	7.06	32 (≈ 23.2 µg/mL)	0.76			COCCN1CCC(N(CC23CC(c4ccc(C(F)(F)F)cc4)(C2)C3)C(=O)Cn2c(SCc3cccc(F)c3F)cc(=O)c3ccccc32)CC1
> 1000	7	74 (≈ 48.6 µg/mL)	1.22	70.5	0.398	CCN(CC)CCN(CC12CC(c3ccc(C(F)(F)F)cc3)(C1)C2)C(=O)Cn1c(SCc2ccc(F)cc2)nc(=O)c2c1CCC2
203 (≈ 276 µM)	6.74	< 1				COCCN1CCC(N(Cc2ccc(-c3ccc(C(F)(F)F)cc3)cc2)C(=O)Cn2c(SCc3cccc(F)c3F)cc(=O)c3ccccc32)CC1 [RILAPLADIB]
399 (≈ 598 µM)		8 (≈ 5.33 µg/mL)				CCN(CC)CCN(Cc1ccc(-c2ccc(C(F)(F)F)cc2)cc1)C(=O)Cn1c(SCc2ccc(F)cc2)nc(=O)c2c1CCC2 [DARAPLADIB]
